Experiments:
[1] = biological target: Cytochrome P450 3A4 (Homo sapiens, UniProt P08684); test: Inhibition of CYP3A4 (unknown origin) using 7-benzyloxy-4-trifluoromethylcoumarin as substrate; assay type: ADME
[2] = biological target: T1, Glucocorticoid receptor (Homo sapiens, UniProt P04150); test: Agonist activity at glucocorticoid receptor in HFF assessed as inhibition of IL-1-induced IL-6 production after 24 hrs
T1 sequence (P04150 whole entry): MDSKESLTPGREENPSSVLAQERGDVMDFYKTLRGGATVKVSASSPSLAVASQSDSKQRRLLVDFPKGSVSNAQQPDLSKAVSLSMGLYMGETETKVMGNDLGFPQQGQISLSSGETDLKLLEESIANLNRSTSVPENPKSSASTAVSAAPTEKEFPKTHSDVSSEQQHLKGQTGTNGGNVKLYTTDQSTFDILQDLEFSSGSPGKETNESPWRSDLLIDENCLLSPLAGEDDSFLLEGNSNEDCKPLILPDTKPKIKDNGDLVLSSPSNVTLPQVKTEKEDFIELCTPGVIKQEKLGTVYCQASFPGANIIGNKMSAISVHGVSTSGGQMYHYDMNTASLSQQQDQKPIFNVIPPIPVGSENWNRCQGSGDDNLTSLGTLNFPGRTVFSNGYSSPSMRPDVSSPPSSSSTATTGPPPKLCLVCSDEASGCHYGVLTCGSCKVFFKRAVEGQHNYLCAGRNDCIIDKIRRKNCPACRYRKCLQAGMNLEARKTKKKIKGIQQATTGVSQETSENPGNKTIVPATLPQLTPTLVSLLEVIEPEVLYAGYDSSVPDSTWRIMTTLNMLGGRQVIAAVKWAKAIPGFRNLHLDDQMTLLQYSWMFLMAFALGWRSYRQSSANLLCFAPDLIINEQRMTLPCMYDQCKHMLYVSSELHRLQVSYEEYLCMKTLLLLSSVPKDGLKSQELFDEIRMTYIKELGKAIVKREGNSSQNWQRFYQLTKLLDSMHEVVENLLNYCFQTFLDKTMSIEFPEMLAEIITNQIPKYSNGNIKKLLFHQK

[3] = Half life in human liver microsomes; assay type: ADME
[4] = biological target: T1, Glucocorticoid receptor; test: Displacement of TAMRA-labeled dexamethasone from glucocorticoid receptor (unknown origin) by fluorescence polarization competitive binding assay
[5] = biological target: T2, Progesterone receptor (Homo sapiens, UniProt P06401); test: Displacement of TAMRA-labeled mifepristone from progesterone receptor (unknown origin) by fluorescence polarization competitive binding assay
T2 sequence (P06401 whole entry): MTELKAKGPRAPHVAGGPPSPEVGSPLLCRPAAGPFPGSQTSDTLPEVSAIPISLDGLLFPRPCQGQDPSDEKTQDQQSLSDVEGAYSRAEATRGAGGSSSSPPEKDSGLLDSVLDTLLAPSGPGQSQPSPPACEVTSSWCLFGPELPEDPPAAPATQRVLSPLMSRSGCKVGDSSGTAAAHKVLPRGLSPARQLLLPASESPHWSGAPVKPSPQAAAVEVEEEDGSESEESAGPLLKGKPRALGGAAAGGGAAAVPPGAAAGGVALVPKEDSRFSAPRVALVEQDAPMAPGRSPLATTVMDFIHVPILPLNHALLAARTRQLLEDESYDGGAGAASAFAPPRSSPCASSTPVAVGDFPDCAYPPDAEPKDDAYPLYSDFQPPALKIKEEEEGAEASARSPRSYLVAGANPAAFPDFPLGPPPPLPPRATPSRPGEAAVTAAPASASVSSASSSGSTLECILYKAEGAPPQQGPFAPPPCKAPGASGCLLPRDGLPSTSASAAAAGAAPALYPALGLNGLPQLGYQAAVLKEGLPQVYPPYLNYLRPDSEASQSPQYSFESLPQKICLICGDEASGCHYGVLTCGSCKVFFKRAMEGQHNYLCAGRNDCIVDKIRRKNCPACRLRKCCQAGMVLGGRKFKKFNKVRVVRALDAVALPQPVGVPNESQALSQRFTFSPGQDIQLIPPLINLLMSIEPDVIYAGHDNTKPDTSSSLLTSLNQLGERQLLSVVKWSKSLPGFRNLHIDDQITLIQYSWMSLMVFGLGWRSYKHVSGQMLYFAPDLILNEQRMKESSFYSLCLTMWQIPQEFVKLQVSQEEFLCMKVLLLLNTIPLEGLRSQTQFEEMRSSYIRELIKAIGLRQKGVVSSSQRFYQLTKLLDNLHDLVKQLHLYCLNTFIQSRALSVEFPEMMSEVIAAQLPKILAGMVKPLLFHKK

[6] = biological target: T3, Mineralocorticoid receptor (Homo sapiens, UniProt P08235); test: Binding affinity to mineralocorticoid receptor (unknown origin) by fluorescence polarization competitive binding assay
T3 sequence (P08235 whole entry): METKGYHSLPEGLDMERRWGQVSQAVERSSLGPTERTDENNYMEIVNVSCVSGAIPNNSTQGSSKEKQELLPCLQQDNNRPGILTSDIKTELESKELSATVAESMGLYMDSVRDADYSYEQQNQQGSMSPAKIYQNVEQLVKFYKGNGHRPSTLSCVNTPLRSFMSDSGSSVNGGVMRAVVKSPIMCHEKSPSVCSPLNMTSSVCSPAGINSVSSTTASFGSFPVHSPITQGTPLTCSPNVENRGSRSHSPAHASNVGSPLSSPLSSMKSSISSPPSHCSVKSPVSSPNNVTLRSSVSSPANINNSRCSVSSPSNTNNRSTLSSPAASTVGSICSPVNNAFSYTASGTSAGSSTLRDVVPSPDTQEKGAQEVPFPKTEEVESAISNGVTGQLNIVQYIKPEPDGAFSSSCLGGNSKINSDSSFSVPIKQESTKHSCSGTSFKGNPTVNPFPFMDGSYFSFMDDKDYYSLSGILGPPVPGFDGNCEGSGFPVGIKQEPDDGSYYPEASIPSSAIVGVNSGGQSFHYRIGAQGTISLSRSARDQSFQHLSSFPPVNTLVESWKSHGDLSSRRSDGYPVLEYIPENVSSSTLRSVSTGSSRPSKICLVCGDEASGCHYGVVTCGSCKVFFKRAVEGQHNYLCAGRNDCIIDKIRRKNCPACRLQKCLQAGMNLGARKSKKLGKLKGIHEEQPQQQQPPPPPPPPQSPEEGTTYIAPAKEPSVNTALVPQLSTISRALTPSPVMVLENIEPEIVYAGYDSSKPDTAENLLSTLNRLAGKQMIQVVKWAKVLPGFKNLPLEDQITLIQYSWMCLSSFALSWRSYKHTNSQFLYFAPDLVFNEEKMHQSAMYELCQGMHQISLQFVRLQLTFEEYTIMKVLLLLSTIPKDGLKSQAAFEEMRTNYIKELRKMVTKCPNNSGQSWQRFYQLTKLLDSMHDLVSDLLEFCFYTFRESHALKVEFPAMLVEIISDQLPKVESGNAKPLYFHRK

[7] = species on record: Homo sapiens; test: Selectivity ratio of IC50 for mineralocorticoid receptor (unknown origin) to IC50 for glucocorticoid receptor (unknown origin)
[8] = species on record: Mus musculus; test: Antiarthritic activity in collagen antibody-induced arthritis mouse model; assay type: functional
[9] = species on record: Mus musculus; test: Antiinflammatory activity in mouse assessed as inhibition of LPS-stimulated TNFalpha production; assay type: functional

Chain of Cytochrome P450 3A4 (P08684 whole entry): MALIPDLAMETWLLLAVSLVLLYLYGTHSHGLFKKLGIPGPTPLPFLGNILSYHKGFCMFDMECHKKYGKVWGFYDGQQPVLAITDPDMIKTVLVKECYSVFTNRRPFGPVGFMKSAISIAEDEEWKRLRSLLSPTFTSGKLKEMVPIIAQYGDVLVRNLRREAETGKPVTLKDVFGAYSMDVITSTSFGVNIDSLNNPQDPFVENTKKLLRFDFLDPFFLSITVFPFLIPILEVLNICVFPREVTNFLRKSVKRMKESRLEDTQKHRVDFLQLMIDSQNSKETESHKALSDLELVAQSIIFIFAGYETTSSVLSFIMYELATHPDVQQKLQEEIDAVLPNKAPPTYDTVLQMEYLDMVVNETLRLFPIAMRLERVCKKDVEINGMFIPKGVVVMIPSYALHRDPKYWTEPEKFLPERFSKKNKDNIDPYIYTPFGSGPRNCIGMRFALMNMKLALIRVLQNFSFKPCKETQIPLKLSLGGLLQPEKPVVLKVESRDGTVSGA

Row | SMILES | IC50 [1] [nM] | IC50 [2] [nM] | half-life [3] [min] | IC50 [4] [nM] | IC50 [5] [nM] | IC50 [6] [nM] | Ratio IC50 [7] | ED50 [8] [mg/kg] | ED50 [9] [mg/kg]
1 | CC[C@@H](Cn1cc(C)c2ccccc21)NS(=O)(=O)c1c(N)cc(Cl)cc1Cl | 940 | 10 | 2 | 2 | 5000 | 260 |  |  | 
2 | Cc1cc(C)c(S(=O)(=O)NC(Cc2c[nH]c3ccccc23)C(F)(F)F)c(C)c1 (stereo not drawn) |  | > 2000 |  | 15 | 3600 | 80 |  |  | 
3 | Cc1cc(C)c(S(=O)(=O)NC(Cc2c[nH]c3cccc(C)c23)C(F)(F)F)c(C)c1 (stereo not drawn) |  | > 2000 |  | 18 | > 2000 | 80 | 1 |  | 
4 | CC[C@@H](Cn1cc(C#N)c2ccccc21)NS(=O)(=O)c1c(N)cc(Cl)cc1Cl | 5800 | 7 | 3 | 1 | 1500 | 330 | 330 | 100 | 10
5 | Cc1cc(C)c(S(=O)(=O)NC(Cc2c[nH]c3cccc(C#N)c23)C(F)(F)F)c(C)c1 (stereo not drawn) |  |  |  | > 10000 | > 10000 | 170 |  |  | 
6 | Cc1cc(C)c(S(=O)(=O)NC(Cn2cc(C#N)c3ccccc32)C(F)(F)F)c(C)c1 (stereo not drawn) |  | > 2000 |  | 15 | 530 | 65 |  |  | 
7 | CC[C@@H](Cn1ccc2ccccc21)NS(=O)(=O)c1c(N)cc(Cl)cc1Cl | 570 | > 2000 | 3 | 2 | > 10000 | 510 |  |  | 
8 | Cc1cc(C)c(S(=O)(=O)NC(Cn2ccc3ccccc32)C(F)(F)F)c(C)c1 (stereo not drawn) |  | > 10000 |  | 25 | 2400 | 120 |  |  | 
9 | Cc1cc(C)c(S(=O)(=O)N[C@@H](C)Cc2c[nH]c3ccccc23)c(C)c1 |  | > 2000 |  | 40 | 1400 | 290 |  |  | 
10 | Cc1cc(C)c(S(=O)(=O)NC(Cn2ccc3c(C#N)cccc32)C(F)(F)F)c(C)c1 (stereo not drawn) |  | > 10000 |  | 60 | 700 | 100 |  |  | 
11 | Cc1cc(C)c(S(=O)(=O)NC(CSc2ccccc2)C(F)(F)F)c(C)c1 (stereo not drawn) |  | > 10000 |  | 20 | 2000 | 280 |  |  | 
12 | Cc1cc(C)c(S(=O)(=O)NC(CNc2ccccc2)C(F)(F)F)c(C)c1 (stereo not drawn) |  | > 10000 |  | 95 | 3200 | 260 |  |  | 
13 | Cc1cc(C)c(S(=O)(=O)NC(Cc2c[nH]c3c(C#N)cccc23)C(F)(F)F)c(C)c1 (stereo not drawn) |  | 45 |  | 10 | 540 | 70 | 1 |  | 
14 | Cc1cc(C)c(S(=O)(=O)NC(Cc2c[nH]c3c(C)cccc23)C(F)(F)F)c(C)c1 (stereo not drawn) |  | > 10000 |  | 20 | 5900 | 90 | 1 |  | 
15 | O=S(=O)(NC(Cc1c[nH]c2ccccc12)C(F)(F)F)c1c(Cl)cc(Cl)cc1Cl (stereo not drawn) |  | > 2000 |  | 35 | 3500 | 80 |  |  | 
16 | Cc1cc(C)c(S(=O)(=O)NC(Cc2c[nH]c3ccc(C#N)cc23)C(F)(F)F)c(C)c1 (stereo not drawn) |  | > 10000 |  | 320 | > 10000 | 210 | 1 |  | 
17 | CC(Cc1c[nH]c2ccccc12)NS(=O)(=O)c1c(N)cc(Cl)cc1Cl (stereo not drawn) |  | 120 |  | 5 | > 2000 | 510 | 102 |  | 
18 | Cc1cc(C)c(S(=O)(=O)NC(COc2ccccc2)C(F)(F)F)c(C)c1 (stereo not drawn) |  | > 10000 |  | 210 | 6400 | 340 |  |  | 
19 | Nc1cc(Cl)cc(Cl)c1S(=O)(=O)NC(Cc1c[nH]c2ccccc12)C(F)(F)F (stereo not drawn) |  | 56 |  | 10 | > 2000 | 270 |  |  | 
20 | Cc1cc(C)c(S(=O)(=O)NC(Cc2c[nH]c3ccc(C)cc23)C(F)(F)F)c(C)c1 (stereo not drawn) |  | 210 |  | 10 | 6000 | 90 | 1 |  | 
21 | Cc1cc(C)c(S(=O)(=O)NC(Cc2c[nH]c3c(C#N)cc(C)cc23)C(F)(F)F)c(C)c1 (stereo not drawn) |  | 15 |  | 5 | 750 | 110 | 22 |  | 
22 | CC(Cc1c[nH]c2ccccc12)NS(=O)(=O)c1c(Cl)cc(Cl)cc1Cl (stereo not drawn) |  | > 2000 |  |  |  |  |  |  | 
23 | Cc1cc(C)c(S(=O)(=O)NC(Cn2ccc3ncccc32)C(F)(F)F)c(C)c1 (stereo not drawn) |  | > 2000 |  | 340 | > 10000 | 220 |  |  | 
24 | Cc1cc(C)c(S(=O)(=O)NC(Cc2c[nH]c3cc(C#N)ccc23)C(F)(F)F)c(C)c1 (stereo not drawn) |  | > 10000 |  | 280 | 2000 | 280 | 1 |  | 
25 | CC(C)(Cc1c[nH]c2ccccc12)NS(=O)(=O)c1c(N)cc(Cl)cc1Cl |  | > 2000 |  | 15 | 5300 | 470 |  |  | 
26 | Cc1cc(C)c(S(=O)(=O)NC(Cc2c[nH]c3cc(C)ccc23)C(F)(F)F)c(C)c1 (stereo not drawn) |  | > 2000 |  | 37 | > 2000 | 140 | 1 |  | 

Reference: ChEMBL document CHEMBL3091451, “Function-regulating pharmacophores in a sulfonamide class of glucocorticoid receptor agonists” (Bioorg Med Chem Lett, 2013)
